The values that follow come from patent publication US20130217652A1, “SULFINYLBENZYL AND THIOBENZYL DERIVATIVES AS SPHINGOSINE 1-PHOSPHATE (S1P) RECEPTOR MODULATORS” (ALLERGAN, INC., priority 2012, published 2013).

T1 sequence (P21453 whole entry): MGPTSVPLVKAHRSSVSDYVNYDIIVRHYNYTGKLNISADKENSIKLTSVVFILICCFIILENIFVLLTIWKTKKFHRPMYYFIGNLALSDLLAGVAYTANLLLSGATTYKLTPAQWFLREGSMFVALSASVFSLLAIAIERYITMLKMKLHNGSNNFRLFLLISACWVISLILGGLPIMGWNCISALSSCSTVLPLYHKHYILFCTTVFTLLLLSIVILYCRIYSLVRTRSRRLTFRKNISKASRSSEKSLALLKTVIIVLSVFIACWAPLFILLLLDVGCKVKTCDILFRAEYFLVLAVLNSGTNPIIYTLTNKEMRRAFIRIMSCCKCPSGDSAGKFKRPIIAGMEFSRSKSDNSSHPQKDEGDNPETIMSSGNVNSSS

The experiment addresses T1, human S1P1 receptor (Homo sapiens, UniProt P21453).
T1 construct: expressed in transfected cells; membranes used
Put plainly: GTP γ35S binding assay for S1P1 activity. Type of experiment: biochemical. Particulars: membranes of cells stably expressing the S1P1 receptor, test compounds 0.08 to 5,000 nM, 30 min at 25° C. As for the experimental part: Compounds were synthesized and tested for S1P1 activity using the GTP γ^35S binding assay. These compounds may be assessed for their ability to activate or block activation of the human S1P1 receptor in cells stably expressing the S1P1 receptor.
GTP γ^35S binding was measured in the medium containing (mM) HEPES 25, pH 7.4, MgCl2 10, NaCl 100, dithitothreitol 0.5, digitonin 0.003%, 0.2 nM GTP γ^35S, and 5 μg membrane protein in a volume of 150 μl. Test compounds were included in the concentration range from 0.08 to 5,000 nM unless indicated otherwise. Membranes were incubated with 100 μM 5′-adenylylimmidodiphosphate for 30 min, and subsequently with 10 μM GDP for 10 min on ice. Drug solutions and membrane were mixed, and then reactions were initiated by adding GTP γ^35S and continued for 30 min at 25° C. Reaction mixtures were filtered over Whatman GF/B filters under vacuum, and washed three times with 3 mL of ice-cold buffer (HEPES 25, pH 7.4, MgCl2 10 and NaCl 100). Filters were dried and mixed with scintillant, and counted for ^35S activity using a β-counter. Agonist-induced GTP γ^35S binding was obtained by subtracting that in the absence of agonist. Binding data were analyzed using a non-linear regression method. In case of antagonist assay, the reaction mixture contained 10 nM S1P in the presence of test antagonist at concentrations ranging from 0.08 to 5000 nM. […] Activity potency: S1P1 receptor from GTP γ^35S: nM, (EC50),
As for `Cc1ccc(CC(CCCCSc2ccc(CNCCC(=O)O)cc2)c2cccc(Cl)c2)cc1C` (centres unmarked) [Compound 1, 3-[(4-{[5-(3-chlorophenyl)-6-(3,4-dimethylphenyl)hexyl]thio}benzyl)amino]propanoic acid], the EC50 came to 0.159 µM.

Turning to `Cc1ccc(CC(CCCC[S+]([O-])c2ccc(CNCCC(=O)O)cc2)c2cccc(Cl)c2)cc1C` (centres unmarked) [Compound 2, 3-[(4-{[5-(3-chlorophenyl)-6-(3,4-dimethylphenyl)hexyl]sulfinyl}benzyl)amino]propanoic acid], a half-maximal effect (EC50) was put at 0.631 µM.

For `Cc1ccc(CC(CCC[S+]([O-])c2ccc(CNCCC(=O)O)cc2)c2cccc(Cl)c2)cc1C` (centres unmarked) [Compound 3, 3-[(4-{[4-(3-chlorophenyl)-5-(3,4-dimethylphenyl)pentyl]sulfinyl}benzyl)amino]propanoic acid], a half-maximal response (EC50) required 0.0817 µM.

On to `Cc1ccc(CC(CCCSc2ccc(CNCCCP(=O)(O)O)cc2)c2cc(F)cc(F)c2)cc1C` (centres unmarked) [Compound 5, {3-[(4-{[4-(3,5-difluorophenyl)-5-(3,4-dimethylphenyl)pentyl]thio}benzyl)amino]propyl}phosphonic acid], for which the EC50 worked out at 0.00265 µM.

As for `Cc1ccc(CC(CCCSc2ccc(CNCCCP(=O)(O)O)cc2)c2cccc(Cl)c2)cc1C` (centres unmarked) [Compound 6, {3-[(4-{[4-(3-chlorophenyl)-5-(3,4-dimethylphenyl)pentyl]thio}benzyl)amino]propyl}phosphonic acid], the EC50 stood at 0.00076 µM.
